# Experimental data as given in patent publication US10155722B2, “Antitumor compound targeting IDH2 mutation and method of use thereof” (CHIA TAI TIANQING PHARMACEUTICAL GROUP CO., LTD., priority 2015, dated 2018).
# Like-named read-outs stand apart in the source and are kept apart here.
# How the values were obtained:
# [1] = Pharmacokinetics parameters in rats after intragastric administration; format: in vivo; conditions: for AUC(0-inf) / Cmax / Tmax / half-life: rat, po, male rats, intragastric, single dose 5 mg/kg, plasma; for half-life (in words) / metabolism in vivo (in words) / plasma concentration compared with AG-6780 at the same dose: rats, 5 mg/kg intragastric
# Protocol: The pharmacokinetic parameters of compounds of the present application were determined by using the following method.
# Healthy male adult rats (7-9 weeks old) were used in this study. Each group of animals (3 male rats) was intragastrically administered once at a single dose of 5 mg/kg with 10% DMSO+70% PEG400+20% NS as adjuvants. The animals in the intragastric administration group were fasted overnight before this study. The fasting time period was from 10 hours before administration to 4 hours after administration.
# Blood samples were taken at 0.25, 0.5, 1, 2, 4, 6, 8 and 24 h after administration. The animals were anesthetized with isoflurane using an animal anesthesia machine, and then 0.3 mL whole blood samples were taken from the fundus venous plexus. The blood samples were placed in heparin anticoagulant tubes, and centrifuged for 5 min at 4° C. and 4000 rpm. The resulting plasmas were transferred to centrifuge tubes, and stored at −80° C. until analysis.
# Verified LC-MS/MS method was used to analyze the plasma samples. Plasma concentration-time data of animals were analyzed using WinNonlin (Professional Edition, version 6.3; Pharsight Company) software. The non-compartmental model was introduced for concentration analysis.
# IDH2 (R172K, 40-end) = IDH2 (R172K, 40-end) (Homo sapiens (Human), UniProt P48735, R172K); assay: IDH2 (R172K, 40-end) inhibitory activity, NADPH depletion with diaphorase/resazurin readout; format: biochemical; conditions: 80 nM enzyme, 40 μM NADPH, 4 mM α-KG
# Protocol: The inhibitory activity of a compound against IDH2 (R172K, 40-end) was determined by the decrease of a helper factor NADPH. The test compound was pre-incubated with an enzyme and NADPH, and then a reaction was initiated by the addition of a-KG, and performed for 120 minutes under a linear condition. Then, the reaction was terminated by the addition of diaphorase (lipoamide dehydrogenase) and the corresponding substrate resazurin. Diaphorase terminated the IDH2m reaction by decreasing the available helper factor NADPH, which oxidized NADPH to NADP, and reduced resazurin to highly fluorescent resorufin. The amount of remaining helper factor NADPH after a specific reaction time was quantified via an easily detectable fluorophore. Specifically, 2.5 μl of a 3-fold gradient diluted test compound was added to a 384-well plate, and then 5 μl of a reaction buffer (20 mM Tris-HCl, PH7.5; 150 mM NaCl; 10 mM MgC12; 10 mM MnCl2; 0.4 mg/ml BSA and 2 mM DTT) containing 80 nM IDH2 (R172K, 40-end) and 40 μM NADPH was added. Then, the resulting test mixture was incubated for 120 minutes at a temperature of 23° C., and then 2.5 μl of the reaction buffer containing 4 mM α-KG was added to initiate the reaction. After incubating for 120 minutes at room temperature, 5 μl of a termination mixture (0.4 U/ml diaphorase and 40 μM resazurin) prepared with the reaction buffer was added to convert resazurin to resorufin to determine the remaining NADPH. After incubating for 10 minutes at a temperature of 23° C., a fluorescence value was determined through Flexstation 3 at Ex535/Em595.
# [2] = test system: leukemia cells carrying the IDH2 mutant; conditions: cited from earlier work
# [3] = test system: cells carrying the most common IDH2 mutant; conditions: cited from earlier work
# glioma cells [4] = conditions: oral administration to mice with a transplanted tumour; cited from earlier work
# glioma cells [5] = conditions: treatment of cell cultures; cited from earlier work
# [6] = test system: glioma cells carrying the IDH1 mutant; conditions: cited from earlier work
# [7] = test system: cells carrying the most common IDH1 mutant; conditions: cited from earlier work
# Sequence of IDH2 (R172K, 40-end) (P48735 40-452 R172K): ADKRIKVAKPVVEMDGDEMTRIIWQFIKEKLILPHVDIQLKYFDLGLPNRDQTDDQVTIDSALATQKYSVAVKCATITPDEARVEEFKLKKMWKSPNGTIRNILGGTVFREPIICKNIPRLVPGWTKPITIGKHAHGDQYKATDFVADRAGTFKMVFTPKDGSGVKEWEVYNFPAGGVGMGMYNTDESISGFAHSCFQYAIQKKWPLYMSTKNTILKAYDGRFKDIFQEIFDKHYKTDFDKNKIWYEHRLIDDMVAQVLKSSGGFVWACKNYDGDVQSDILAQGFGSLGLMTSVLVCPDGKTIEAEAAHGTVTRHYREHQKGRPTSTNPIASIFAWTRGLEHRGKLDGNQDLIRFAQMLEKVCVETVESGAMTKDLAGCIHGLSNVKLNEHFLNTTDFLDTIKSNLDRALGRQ
smiles,measurement,setting,value
"O=C(Nc1cccc(C(F)(F)F)c1)Nc1cc(CNC(=O)C2CC2)ccc1-c1ccsc1 [Example 28, N-(4-(thiophen-3-yl)-3-(3-(3-(trifluoromethyl)phenyl)ureido)benzyl) cyclopropanecarboxamide]",AUC(0-inf),[1],844 ng·h/mL
same,Cmax,[1],414 ng/mL
same,Tmax,[1],19.8 min
same,half-life,[1],140 min
same,half-life (in words),[1],long half-life
same,metabolism in vivo (in words),[1],very good metabolism in vivo
same,plasma concentration compared with AG-6780 at the same dose,[1],higher plasma concentration
same,IC50,"IDH2 (R172K, 40-end)",55 nM
"O=C(Nc1cccc(C(F)(F)F)c1)Nc1cc(C(F)(F)C(=O)NC2CC2)ccc1-c1ccsc1 [Example 1, N-cyclopropyl-2,2-difluoro-2-(4-(thiophen-3-yl)-3-(3-(3-(trifluoromethyl)phenyl)ureido)phenyl)acetamide]",IC50,"IDH2 (R172K, 40-end)",14.2 nM
"N#CC1(NC(=O)C(F)(F)c2ccc(-c3ccsc3)c(NC(=O)Nc3cccc(C(F)(F)F)c3)c2)CC1 [Example 4, N-(1-cyanocyclopropyl)-2,2-difluoro-2-(4-(thiophen-3-yl)-3-(3-(3-(trifluoromethyl)phenyl)ureido)phenyl)acetamide]",IC50,"IDH2 (R172K, 40-end)",56.5 nM
"O=C(Nc1cccc(C(F)(F)F)c1)Nc1cc(C(F)(F)C(=O)NC2CC2)ccc1-c1ccccc1 [Example 12, N-cyclopropyl-2,2-difluoro-2-(2-(3-(3-(trifluoromethyl)phenyl)ureido)-[1,1′-biphenyl]-4-yl)acetamide]",IC50,"IDH2 (R172K, 40-end)",53.8 nM
"O=C(Nc1ccc(F)c(C(F)(F)F)c1)Nc1cc(C(F)(F)C(=O)NC2CC2)ccc1-c1ccsc1 [Example 10, N-cyclopropyl-2,2-difluoro-2-(3-(3-(4-fluoro-3-(trifluoromethyl)phenyl)ureido)-4-(thiophen-3-yl)phenyl)acetamide]",IC50,"IDH2 (R172K, 40-end)",391 nM
"NC(C(=O)NC1CC1)c1ccc(-c2ccsc2)c(NC(=O)Nc2cccc(C(F)(F)F)c2)c1 (centres unmarked) [Example 21, 2-Amino-N-cyclopropyl-2-(4-(thiophen-3-yl)-3-(3-(3-(trifluoromethyl)phenyl)ureido)phenyl)acetamide]",IC50,"IDH2 (R172K, 40-end)",622 nM
"O=C(Nc1cccc(C(F)(F)F)c1)Nc1cc(C2(C(=O)NC3CC3)CC2)ccc1-c1ccsc1 [Example 17, N-cyclopropyl-1-(4-(thiophen-3-yl)-3-(3-(3-(trifluoromethyl)phenyl)ureido)phenyl) cyclopropanecarboxamide]",IC50,"IDH2 (R172K, 40-end)",138 nM
"CC(NC1CC1)c1ccc(-c2ccsc2)c(NC(=O)Nc2cccc(C(F)(F)F)c2)c1 (centres unmarked) [Example 24, 1-(5-(1-(cyclopropylamino)ethyl)-2-(thiophen-3-yl)phenyl)-3-(3-(trifluoromethyl)phenyl)urea]",IC50,"IDH2 (R172K, 40-end)",312 nM
"O=C(Nc1cccc(C(F)(F)F)c1)Nc1cc(S(=O)(=O)NC2CC2)ccc1-c1ccsc1 [AGI-6780, reference compound]",AUC(0-inf),[1],559 ng·h/mL
same,Cmax,[1],191 ng/mL
same,Tmax,[1],170 min
same,half-life,[1],89.4 min
same,expression of mature markers,[2],enhanced expression of mature markers
same,generation of 2-HG,[3],inhibit the generation of 2-HG
Cc1ccccc1C(C(=O)NC1CCCCC1)N(C(=O)Cn1ccnc1C)c1cccc(F)c1 (centres unmarked) [AGI-5198],growth rate of glioma cells,glioma cells [4],inhibit the growth rate
same,growth rate of glioma cells,glioma cells [5],inhibit the growth rate
same,expression of mature markers,[6],enhanced expression of mature markers
same,generation of 2-HG,[7],inhibit the generation of 2-HG
"CC(C)(C(=O)NC1CC1)c1ccc(-c2ccsc2)c(NC(=O)Nc2ccc3c(c2)C(=O)NC3)c1 [Example 18, N-cyclopropyl-2-methyl-2-(3-(3-(3-oxoisoindol-5-yl)ureido)-4-(thiophen-3-yl)phenyl) propanamide]",IC50,"IDH2 (R172K, 40-end)",1230 nM
CC(C)NC(=O)C(F)(F)c1ccc(-c2ccsc2)c(NC(=O)Nc2cccc(C(F)(F)F)c2)c1 [Example 3],IC50,"IDH2 (R172K, 40-end)",62.4 nM
"O=C(Nc1cccc(C(F)(F)F)c1)Nc1cc(C2(C(=O)NC3CC3)CCC2)ccc1-c1ccsc1 [Example 19, N-cyclopropyl-1-(4-(thiophen-3-yl)-3-(3-(3-(trifluoromethyl)phenyl)ureido)phenyl) cyclobutanecarboxamide]",IC50,"IDH2 (R172K, 40-end)",87.5 nM
O=C(Cc1ccc(-c2ccsc2)c(NC(=O)Nc2cccc(C(F)(F)F)c2)c1)NC1CC1 [Example 16],IC50,"IDH2 (R172K, 40-end)",75.8 nM
"CC(C)(C(=O)NC1CC1)c1ccc(-c2ccsc2)c(NC(=O)Nc2cccc(C(F)(F)F)c2)c1 [Example 15, N-cyclopropyl-2-methyl-2-(4-(thiophen-3-yl)-3-(3-(3-(trifluoromethyl)phenyl)ureido)phenyl)propanamide]",IC50,"IDH2 (R172K, 40-end)",65.7 nM
"O=C(Nc1cccc(C(F)(F)F)c1)Nc1cc(C(=O)NC2CC2)ccc1-c1ccsc1 [Example 23, N-cyclopropyl-4-(thiophen-3-yl)-3-(3-(3-(trifluoromethyl)phenyl)ureido)benzamide]",IC50,"IDH2 (R172K, 40-end)",551 nM
"O=C(Nc1cccc(C(F)(F)F)c1)Nc1cc(C(F)(F)C(=O)NC2COC2)ccc1-c1ccsc1 [Example 5, 2,2-Difluoro-N-(oxetan-3-yl)-2-(4-(thiophen-3-yl)-3-(3-(3-(trifluoromethyl)phenyl)ureido)phenyl)acetamide]",AUC(0-inf),[1],858 ng·h/mL
same,Cmax,[1],495 ng/mL
same,Tmax,[1],25.2 min
same,half-life,[1],262 min
same,half-life (in words),[1],long half-life
same,metabolism in vivo (in words),[1],very good metabolism in vivo
same,plasma concentration compared with AG-6780 at the same dose,[1],higher plasma concentration
same,IC50,"IDH2 (R172K, 40-end)",29.5 nM
"CCC(C(=O)NC1CC1)c1ccc(-c2ccsc2)c(NC(=O)Nc2cccc(C(F)(F)F)c2)c1 (centres unmarked) [Example 20, N-cyclopropyl-2-(4-(thiophen-3-yl)-3-(3-(3-(trifluoromethyl)phenyl)ureido)phenyl) butanamide]",IC50,"IDH2 (R172K, 40-end)",362 nM
"CC(NC(=O)C1CC1)c1ccc(-c2ccsc2)c(NC(=O)Nc2cccc(C(F)(F)F)c2)c1 (centres unmarked) [Example 27, N-(1-(4-(thiophen-3-yl)-3-(3-(3-(trifluoromethyl)phenyl)ureido)phenyl)ethyl) cyclopropanecarboxamide]",IC50,"IDH2 (R172K, 40-end)",82.9 nM
"CC(C(=O)NC1CC1)c1ccc(-c2ccsc2)c(NC(=O)Nc2cccc(C(F)(F)F)c2)c1 (centres unmarked) [Example 14, N-cyclopropyl-2-(4-(thiophen-3-yl)-3-(3-(3-(trifluoromethyl)phenyl)ureido)phenyl) propanamide]",IC50,"IDH2 (R172K, 40-end)",69.9 nM
"Cc1cc(-c2ccc(C(F)(F)C(=O)NC3CC3)cc2NC(=O)Nc2cccc(C(F)(F)F)c2)n(C)n1 [Example 13, N-cyclopropyl-2-(4-(1,3-dimethyl-1H-pyrazol-5-yl)-3-(3-(3-(trifluoromethyl)phenyl)ureido)phenyl)-2,2-difluoroacetamide]",IC50,"IDH2 (R172K, 40-end)",106 nM
O=C(Nc1cccc(C(F)(F)F)c1)Nc1cc(C(F)(F)C(=O)NCC(F)(F)F)ccc1-c1ccsc1 [Example 2],IC50,"IDH2 (R172K, 40-end)",45.5 nM
